Experimental data taken from patent US9988626B2, “Neurocalcin delta inhibitors and therapeutic and non-therapeutic uses thereof” (Universität Zu Köln, priority 2013, dated 2018).
Entries after “also recorded” stand apart in the source; their conditions may differ.

Legend:
Ncald = experiment: Knockdown efficiency of shRNA constructs in NSC34 cells (qRT-PCR of Ncald levels); format: cell-based, mouse; settings: transient transfection of NSC34 cells, 72 h
Method: Before starting the cloning of the targeting construct for the mouse generation, we constructed and tested five individual shRNA elements targeting the Ncald gene. To do so, we transiently transfected five different shRNA-Ncald constructs in murine NSC34 cells and analysed the knockdown efficiency after 72 h. […] For further testing, we cloned selected shRNA sequences into the vector pEx-H1tetO-CAG-tetR carrying all necessary elements of the tetO/R system which allow later induction of the shRNA-expression by administration of doxycycline (Dox) (Kleinhammer et al. 2011). Currently, after we could verify the dox-inducible capability of two shRNA constructs to knockdown Ncald, we are producing stable murine embryonic cell lines (ES cells) to subsequently generate two individual transgenic mouse strains containing inducible Ncald knockdown vectors. These mice will later be crossed on SMA background to investigate the protective ability of Ncald downregulation.
The knockdown efficiency of five individual shRNA sequences was tested by qRT-PCR-based quantification of Ncald levels, 72 h after knockdown using different shRNA sequences. Transient transfection of NSC34 cells. The respective sequences are those of SEQ ID NO: 15-19 as shown above.

zebrafish larvae = experiment: Endocytosis inhibitor treatment of zebrafish, motor axon phenotype; format: in vivo
Method: The in vivo effect of inhibition of endocytosis on MN outgrowth was investigated by the use of the pharmacological inhibitors Pitstop2 and Dynasore (both Abcam) in the SMA zebrafish model. Motor axons of treated zebrafish larvae were analyzed by fluorescence microscopy. For immunohistochemistry, zebrafish were manually dechorionated and fixed in 4% PFA-PBS at 34 hours post fertilization. To permeabilize the larvae for the following antibody staining, collagenase digest of the whole animal was performed. To visualize the primary motor axons, fish were incubated at 4° C. over night in 500 μl PBS-T/1% DMSO/10% FCS containing znp-1 antibody (1:300, Hybridoma Bank). Fish were stained in PBS-T/1% DMSO/10% FCS containing secondary donkey anti-mouse antibody labelled with Alexafluor 488 (1:200, Invitrogen) after all-day washing in PBS-T/1% FCS/1% BSA (changing solution every hour). After repeated washing in PBS-T and PBS, fish were stored in 80% glycerol/20% PBS in the dark at 4° C. Labelled fish were embedded in low-melting agarose micro slides and analysed using a fluorescence microscope (AxioImager M2, Zeiss). The structure of each of the first ten motor axons posterior to the yolk was analysed, rated as: 1) normal, 2) truncated (truncation ventral from midline), 3) severely truncated (shorter than midline), 4) branched I (branching ventral from midline), 5) branched II (branching at midline), or 6) branched BI (branching dorsal from midline) and statistically evaluated using Excel (Microsoft). Dynasore (dynamin inhibitor) and Pitstop2 (clathrin inhibitor) (both Abcam) were dissolved as stock solution (50 mM) in DMSO and stored at −20° C. Zebrafish were treated with the respective concentrations starting at 16 hpf. To do so, fish were dechorionated and substance was added to the embryo medium. Fish larvae were incubated at 28° C. in an incubator on a rocking platform (20 rpm) until fixed in PBS-PFA at 34 hpf. Subsequently fish were stained with znp-1 antibody, as described above.

NSC34 cells = experiment: FITC-dextran endocytosis assay of NSC34 cells treated with Ionomycin; format: cell-based, mouse; settings: presence vs absence of Ionomycin, n=50
Method: To unravel differences in endocytosis performance, cells (fibroblasts and NSC34) were starved and subsequently incubated with FITC-dextran. FITC-uptake after respective incubation times was quantified either by microscopic analysis or by FACS.
One day before the measurement, some 15,000 fibroblasts per well (4-well EZ slides, Millipore) were plated out in 500 μl normal DMEM growth medium (Invitrogen). Cells were starved for 10 minutes in starvation media (DMEM transparent (HEPES), 2% FKS) at 37° C. For endocytosis, cells were treated with FITC dextran solution (5 mg/ml FITC-dextran in starvation medium) for respective time period at 37° C. Subsequently, medium was removed and cells were washed three times with ice-cold PBS on ice and fixed in 4% paraformaldehyde for ten minutes. After subsequent washing (2 times in PBS) cells were stained with Alexafluor 568 phalloidin (Invitrogen, 2 hours at 4° C.). Then, after washing cells were stained with DAPI and mounted with Mowiol (Sigma). Finally, FITC fluorescence was monitored at the fluorescence microscope (Axiolmager M2, Zeiss) and quantified using the Zen software (Zeiss) and evaluated with Excel (Microsoft).

shRNA #5: shRNA knocking down mouse NCALD, one of five of SEQ ID NO: 15-19 (DNA CCGGGCTTCCAAATTTGCAGAGCATCTGGAGATGCTCTGCAAATTTGGAAGCTTTTTG)
Knockdown efficacy of Ncald (Ncald): sufficient knockdown efficacy

O=C1NC(=NS(=O)(=O)c2cccc3ccccc23)S/C1=C\c1ccc(Br)cc1 [Pitstop2]
Motor axon truncation, inhibitor in combination with smn MO (zebrafish larvae; subphenotypical smn MO (2 ng) plus Pitstop2): significant elevation in the number of truncated motor axons | Motor axon truncation, inhibitor in combination with smn MO (zebrafish larvae; subphenotypical smn MO (2 ng) plus Pitstop2, listed as Pitstop): synergistic effect

C[C@H](CCC(=O)O)C[C@H](C)C[C@H](C)C(=O)/C=C(\O)[C@H](C)C[C@H](C)C/C=C/[C@@H](C)[C@@H](O)[C@@H](C)[C@@H](O)C[C@@H]1CC[C@@](C)([C@H]2CC[C@@](C)([C@@H](C)O)O2)O1 [Ionomycin]
Endocytosis (FITC-dextran) (NSC34 cells): significant increase in endocytosis; also recorded: significantly increased endocytosis

shRNA #4: shRNA knocking down mouse NCALD, one of five of SEQ ID NO: 15-19 (DNA CCGGCGCCAGATGGATACCAATAGACTGGAGTCTATTGGTATCCATCTGGCGTTTTTG)
Knockdown efficacy of Ncald (Ncald): sufficient knockdown efficacy

O=C(N/N=C/c1ccc(O)c(O)c1)c1cc2ccccc2cc1O [Dynasore]
Motor axon truncation, inhibitor alone or with low smn MO (zebrafish larvae; Dynasore alone or in combination with low smn MO): SMA-like axonal truncations
